Values of other authors, collected in US20080045610A1, “Methods for regulating neurotransmitter systems by inducing counteradaptations” (priority 2004, published 2008).

How the values were obtained:
opiate receptor = conditions: compared with native morphine compound
[1] = parent compound itself
[2] = in vivo

In the case of `CN1CC[C@]23c4c5ccc(O)c4O[C@H]2CC=C[C@H]3[C@H]1C5` [6-desoxymorphine], the “activity relative to native morphine” value (opiate receptor) is listed as 10 times.
In the case of `CC(=O)Oc1ccc2c3c1O[C@H]1[C@@H](OC(C)=O)C=C[C@H]4[C@@H](C2)N(C)CC[C@@]341` [diacetylmorphine], the oral bioavailability is given as ~67%.
For `C=C1CC[C@@]2(O)[C@H]3Cc4ccc(O)c5c4[C@@]2(CCN3CC2CC2)[C@H]1O5` [nalmefene], the half-life [1] is given as 8 h and the liver toxicity [2] is given as “no dose dependent liver toxicity”.
